Assay results from patent publication US10106550B2, “Aza-phenalene-3-ketone derivative, preparation method thereof, and its application as PARP inhibitor” (SUZHOU KANGRUN PHARMACEUTICALS INC., priority 2015, dated 2018).
Values joined by “and” are separate entries in the source; they are usually repeats but may differ in a detail not shown here. Identical values can stand only once. Like-named read-outs stand apart in the source and are kept apart here.

How the values were obtained:
PARP1 = PARP1 (Homo sapiens (Human), UniProt P09874); assay: PARP1 inhibitory activity, Universal PARP colorimetric assay kit (Trevigen); type: biochemical; details: for IC50: PARP1
Source text: 1. Measuring PARP1 Inhibitory Activity
1.1 Materials and Methods
Universal PARP colorimetric assay kit (US Trevigen company)

[1] = Preliminary pharmacokinetics study in SD rats (single intravenous injection or oral gavage, plasma LC-MS/MS); type: in vivo; details: for AUC(0-inf) / AUC(0-t) / clearance / half-life / Vd / bioavailability / Cmax / Tmax: male, Sprague-Dawley (SD), rat; for Vd: read-out: VdSS; for bioavailability: single oral gavage 10 mg/kg vs intravenous 5 mg/kg, read-out: F (oral bioavailability)
Method: 2. Preliminary Pharmacokinetics Study of Compounds A1, A3, A6 in SD Rats
Healthy SPF SD male rats: 18, weighing 180-220 g, purchased from Shanghai Si Lai Ke Lab Animal Co. Ltd.; animal license no. SOCK (Shanghai) 2013-00016.
Rats were divided into intravenous injection group and oral gavage administration group, and fast for 12-14 hours before experiments. Test compounds' concentration in venous blood was measured. Venous blood was collected by orbital, EDTAK2 anticoagulation. The blood samples were placed on ice, and centrifuged within 30 minutes to separate plasma (centrifugal condition: 5000 rpm/min, 10 min, room temperature). The samples were stored at −80° C. prior to analysis.
Rats in intravenous injection group received a single injection 5 mL/kg of the test compounds. Rats in oral gavage administration group received a single dose 10 mL/kg of the test compounds. Venous blood sample collection times were: before the injection of the test compound (0 hr); after the injection of the test compound: 15 min, 30 min, 1 h, 2 h, 4 h, 6 h, 8 h and 24 h; before the oral gavage administration of the test compound (0 hr) and after the oral gavage administration of the test compounds, 30 min, 1 h, 2 h, 4 h, 6 h, 8 h and 24 h.
Liquid phase conditions: column: Agilent Eclipse plus-C18 (4.6×150 mm, 5.0 μm), mobile phase: 0.1% aqueous formic acid (A)/0.1% formic acid in acetonitrile (B); gradient elution, flow rate: 1.00 mL/min (split v:v=1:1); injection volume: 10 μL.
MS conditions: using electrospray ionization (ESI) and the positive ion mode under multiple reaction monitoring (MRM).
Compounds A1, A3, and A6 were weighed precisely and added to MDSO to prepare 1.00 mg/mL stock solutions. After the stock solutions were diluted to prepare 10000, 5000, 2000, 1000, 500, 100, 50.0, 20.0 ng/mL standard working solutions. Quality control work concentrations include low (30 ng/mL), medium (500 ng/mL), and high (8000 ng/mL).
10 μL plasma sample was added 100 μL verapamil internal standard solution. The mixture was vortexed for 60 seconds and then centrifuged (12000 rpm, 3 min). 70 μL supernatant was transferred to a 96-well plate with equal volume of water in each well. LC-MS/MS analysis was then conducted, and the injection volume was 10 μL.
Data were processed by using WinNonlin 6.3 pharmacokinetic calculation software and non-compartment pharmacokinetic model to obtain major pharmacokinetic parameters.

[2] = plasma, single intravenous injection, 5 mg/kg
[3] = plasma, single oral gavage, 10 mg/kg
[4] = single intravenous injection, 5 mg/kg
[5] = in vivo, single intravenous injection, 5 mg/kg
[6] = in vivo, single oral gavage, 10 mg/kg

Sequence of PARP1 (P09874 whole entry): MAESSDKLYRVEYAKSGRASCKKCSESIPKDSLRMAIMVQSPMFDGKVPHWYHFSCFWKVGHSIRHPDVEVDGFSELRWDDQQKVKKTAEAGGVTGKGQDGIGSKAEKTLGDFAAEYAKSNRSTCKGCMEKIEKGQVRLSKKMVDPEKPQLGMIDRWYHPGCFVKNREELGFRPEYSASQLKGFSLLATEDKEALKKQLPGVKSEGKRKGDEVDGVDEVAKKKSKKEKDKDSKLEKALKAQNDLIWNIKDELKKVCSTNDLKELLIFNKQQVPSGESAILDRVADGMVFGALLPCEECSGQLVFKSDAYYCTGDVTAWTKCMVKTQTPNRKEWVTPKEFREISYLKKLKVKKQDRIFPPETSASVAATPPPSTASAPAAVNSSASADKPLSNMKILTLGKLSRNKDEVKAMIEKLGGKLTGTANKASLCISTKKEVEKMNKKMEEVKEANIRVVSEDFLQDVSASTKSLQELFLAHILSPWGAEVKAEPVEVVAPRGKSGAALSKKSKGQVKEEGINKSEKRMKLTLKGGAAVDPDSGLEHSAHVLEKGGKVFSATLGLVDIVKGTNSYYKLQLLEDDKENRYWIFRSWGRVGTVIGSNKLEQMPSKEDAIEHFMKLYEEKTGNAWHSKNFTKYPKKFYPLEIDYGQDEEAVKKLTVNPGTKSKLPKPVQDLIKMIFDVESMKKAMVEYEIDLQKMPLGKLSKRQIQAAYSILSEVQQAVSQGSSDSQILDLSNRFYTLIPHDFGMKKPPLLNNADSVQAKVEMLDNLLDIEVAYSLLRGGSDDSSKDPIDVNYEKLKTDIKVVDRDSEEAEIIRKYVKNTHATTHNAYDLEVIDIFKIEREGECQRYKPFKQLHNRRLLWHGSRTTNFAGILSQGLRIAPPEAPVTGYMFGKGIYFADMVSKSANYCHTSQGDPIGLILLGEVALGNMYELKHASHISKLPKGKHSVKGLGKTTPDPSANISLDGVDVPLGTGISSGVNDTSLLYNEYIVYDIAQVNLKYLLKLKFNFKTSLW

SMILES	IC50 (PARP1) [µM]	exposure levels (AUC0-4) [1]	Tmax [1, 3] [min]	AUMC0-inf [1, 4] [h · h · ng · mL^−1]	AUMC0-t [1, 4] [h · h · ng · mL^−1]	Kel [1, 4] [h⁻¹]	MRTIV [1, 4] [min]	AUMC0-inf ([1]; single oral gavage, 10 mg/kg) [h · h · ng · mL^−1]	AUMC0-t ([1]; single oral gavage, 10 mg/kg) [h · h · ng · mL^−1]	CL ([1]; single oral gavage, 10 mg/kg) [mL·min/kg]	Kel ([1]; single oral gavage, 10 mg/kg) [h⁻¹]	MRTPO ([1]; single oral gavage, 10 mg/kg) [min]	Vz ([1]; single oral gavage, 10 mg/kg) [L/kg]	further results
CN1CCN2C(=Nc3cccc4c(=O)[nH]nc2c34)C1 [Compound A3]	0.13	higher	15	1175 ± 105	1145 ± 120	1.02 ± 0.034	30.4 ± 2.4	2658 ± 308	2566 ± 474	71.3 ± 7.6	0.818 ± 0.036	64.8 ± 5.64	5.22 ± 0.81	AUC(0-inf) [1, 2]: 2.29 ± 0.321 µg·h/mL; AUC(0-t) [1, 2]: 2.29 ± 0.323 µg·h/mL; clearance [1, 2]: 2.3 ± 0.15 L/h/kg; half-life [1, 2]: 43.3 ± 4.92 min; Vd [1, 2]: 1.15 ± 0.07 L/kg; bioavailability ([1]; plasma): 50.5 ± 6.8%; AUC(0-inf) [1, 3]: 2.31 ± 0.309 µg·h/mL; AUC(0-t) [1, 3]: 2.34 ± 0.334 µg·h/mL; Cmax [1, 3]: 1.86 ± 0.251 µg/mL; half-life [1, 3]: 50.9 ± 3.3 min
C=C(C)CCN1CCN2C(=Nc3cccc4c(=O)[nH]nc2c34)C1 [Compound A6]	0.0391	higher	30	232 ± 17	196 ± 27	3.64 ± 0.22	13.3 ± 1.56	284 ± 29	269 ± 33	626 ± 93	1.77 ± 0.28	70.2 ± 5.4	31.2 ± 4.8	AUC(0-inf) [1, 2]: 1.04 ± 0.118 µg·h/mL; AUC(0-t) [1, 2]: 1 ± 0.092 µg·h/mL; clearance [1, 2]: 4.99 ± 0.798 L/h/kg; half-life [1, 2]: 11.5 ± 0.72 min; Vd [1, 2]: 1.1 ± 0.15 L/kg; bioavailability ([1]; plasma): 13 ± 2.1%; AUC(0-inf) [1, 3]: 0.271 ± 0.043 µg·h/mL; AUC(0-t) [1, 3]: 0.264 ± 0.036 µg·h/mL; Cmax [1, 3]: 0.259 ± 0.028 µg/mL; half-life [1, 3]: 30.8 ± 2.46 min
NC(=O)c1ccc(I)c([N+](=O)[O-])c1 [BSI-201, reference compound]														inhibition at 1 µM (PARP1; PARP1, 1 μM, read-out: inhibition rate): 22.4%
CCN1CCN2C(=Nc3cccc4c(=O)[nH]nc2c34)C1 [Compound A2]	0.0657													
Cl.O=c1[nH]nc2c3c(cccc13)N=C1CNCCN12 [Compound A1]	0.0905	higher	30	4190 ± 575	3790 ± 547	0.463 ± 0.063	57.2 ± 6.24	9200 ± 336	8548 ± 240	29.7 ± 3.2	0.523 ± 0.046	93 ± 12	3.62 ± 0.37	AUC(0-inf) [1, 5]: 4.28 ± 0.317 µg·h/mL; AUC(0-t) [1, 5]: 4.25 ± 0.304 µg·h/mL; clearance [1, 5]: 1.17 ± 0.084 L/h/kg; half-life [1, 5]: 91.8 ± 9.6 min; Vd [1, 5]: 1.11 ± 0.11 L/kg; bioavailability ([1]; in vivo): 67.5% and 67.1%; AUC(0-inf) [1, 6]: 5.74 ± 0.841 µg·h/mL; AUC(0-t) [1, 6]: 5.71 ± 0.802 µg·h/mL; Cmax [1, 6]: 3.12 ± 0.173 µg/mL; half-life [1, 6]: 80.4 ± 7.2 min
NC(=O)c1cccc(N)c1 [Compound 3-AB, reference compound]														inhibition at 1000 µM (PARP1; PARP1, 1 mM, read-out: inhibition rate): 100%
CC(C)N1CCN2C(=Nc3cccc4c(=O)[nH]nc2c34)C1 [Compound A4]	0.111													
O=c1[nH]nc2c3c(cccc13)N=C1CN(Cc3ccccc3)CCN12 [Compound A5]	0.0587													
